{"source": "patent US20240299334A1", "about": "“PHARMACEUTICAL COMPOSITION OF NAPHTHALENE DERIVATIVES AS MULTI-TARGETED THERAPEUTIC AGENTS FOR THE TREATMENT OF ALZHEIMER'S DISEASE” (CENTRO DE NEUROCIENCIAS DE CUBA, CNEURO, priority 2020, published 2024)", "key": {"[1]": {"system": "memory loss induced by an acute administration of scopolamine (ESC)", "assay": "Y-maze, short-term spatial memory, acute scopolamine (ESC) model", "type": "in vivo, mice", "protocol": "Young male OF-1 mice (20-25 g), supplied by the National Center for the Laboratory Animals Production (CENPALAB, Cuba), were used. Before the experiment, the animals were adapted for seven days to laboratory conditions (controlled temperature 25±2° C., relative humidity 60±10% and light/dark cycles of 12 h). During this period, and during the experiment, the animals received ad libitum water and a standard diet for rodents supplied by CENPALAB. All procedures were carried out in accordance with the European Commission guidelines for the use and care of laboratory animals and approved by the Committee for the Care of Research Animals. The minimum number of animals and duration of observations required to obtain consistent data was used.\nAt the end of the adaptation period, the animals were randomly distributed according to their body weights in 5 experimental groups of 12 animals per group. Scopolamine hydrobromohydrate (ESC, Sigma Aldrich) was used to induce cognitive deficit, which was dissolved in physiological saline and administered intraperitoneally (ip) at a dose of 1.5 mg/kg, 30 minutes before the test (Miranda H F et al. in. J. Biomed. Sci., 2014 21 (1): 62-62). The doses of compound 3 used were 0.1, 1, 10 and 20 mg/kg of body weight. The compound was formulated using carboxymethyl cellulose (CMC). The administration scheme was designed as follows:\nGroup 1 (negative control) with normal cognitive function. Two administrations with an interval of 30 minutes with vehicle (5% CMC) by oral route and saline solution by i.p. route, respectively.\nGroup 2 (positive control) with cognitive dysfunction. Two administrations with an interval of 30 minutes, the first with vehicle (5% CMC), the second with ESC 1 mg/kg.\nGroup 3, 4, 5 and 6 treated with 3 (0.1, 1, 10 and 20 mg/kg). Two administrations with an interval of 30 minutes, the first with 3 at the dose corresponding to each group, the second with ESC 1 mg/kg. The behavioral evaluation was carried out 30 minutes after this second administration.\nThe study of short-term spatial memory was carried out through the study of novel spatial preference, using the Y-maze behavioral paradigm (40 cm long×9 cm wide×16 cm high) with extra-labyrinthine tracks around of the maze. The test consisted of two trials separated by an interval of 2 hours. In the first training test (acquisition), the mice were placed in the center of the maze and facing the end of one of the arms whose selection was random. After being positioned, they were allowed to explore the maze for 10 minutes with one of the arms closed (novel arm). At the end of this test, the mice were returned to their original cage until the second test (recovery), during which they could freely explore the three arms of the maze for 5 minutes. The total residence time (exploration) in each arm was measured and analyzed from video recordings. The entrance to the arm was defined as the entrance of the four legs of the animal in said arm. The residence time (sec) in each arm during the recovery test of the learned task was used for the statistical analysis. The maze was cleaned with 70% ethanol between runs. All mice were transported to the behavioral testing room in their home cages at least 1 day prior to testing. The experiments were carried out between 8:00 am and 12:30 pm.\nAll data are expressed as the mean±standard error of the mean (SEM). The Morris water maze data was analyzed in two ways. Escape latencies in the visible platform training phase were analyzed using a two-factor ANOVA (treatment×trial). For the study of long-term memory, the last escape latency value of the training phase with the visible platform (D1 V4) and the first value of the test with the hidden platform performed 24 h later (D2T1) were used. Mice with intact long-term memory capacity should quickly reach the hidden platform in the first test. A scoring system was generated with the difference D2T1−D1 V4 and with the ratio D2T1/D1V4. […]"}, "[2]": {"system": "seizures induced by icv administration of kainic acid", "assay": "Seizures induced by icv administration of kainic acid (Racine scale)", "type": "in vivo, mice", "details": "compound 3 5 and 50 mg/kg oral, 1 h before KA icv; effect greater with 50 mg/kg", "protocol": "Young male OF-1 mice (20-25 g), supplied by the National Center for the Laboratory Animals Production (CENPALAB, Cuba) were used. The conditions of adaptation and maintenance of the animals before carrying out the experiment were similar to those developed in non-limiting Example 2. The mice were divided into 5 experimental groups (7 animals group) distributed in: a control group (PBS 2 μL, icv), a seizure control group (KA 2 μL, icv) and three groups treated orally by gastric cannulation with compound 3 at doses of 1, 5, 50 mg/kg […] and KA 2 μL, icv. Compound 3 was prepared as a suspension in 5% carboxymethylcellulose (CMC) vehicle. […]\nFor the icv administration of KA the mice were anesthetized with 685.71 mg/kg with chloral hydrate i.p. and placed on a dual manipulator. […] Stereotaxic coordinates for the lateral ventricle were precisely measured as: anteroposterior […], lateral±[…] and dorsoventral […] relative to bregma and ventral dura with the tooth bar at […]. A burr hole was made in the skull by automatic microperforation attached to an arm of the stereotaxic apparatus. […]\nStatistical Analysis All data are expressed as the mean±standard error of the mean (SEM), and were analyzed using a one-way analysis of variance followed by Turkey's post-hoc test. […]"}}, "data": [{"smiles": "CSC(=S)NCCNC(=O)CCC(=O)Nc1cccc2ccccc12", "note": "[compound 3, methyl(2-{[4-(1-naphthylamino)-4-oxobutanoyl]amino}ethyl)dithiocarbamate]", "values": [{"measurement": "dose with the greatest effect", "setting": "[1]; Y-maze, acute ESC model", "result": 1, "unit": "mg/kg"}, {"measurement": "residence (exploration) time in the novel arm", "setting": "[1]; compound 3 at doses higher than 1 mg/kg (10, 20 mg/kg)", "result": "a decrease in this parameter was observed"}, {"measurement": "amnesia induced by ESC, preference for novel arm in Y-maze", "setting": "[1]; compound 3 single doses 0.1 mg/kg to 10 mg/kg, 30 min before ESC, p<0.001", "result": "significantly reversed"}, {"measurement": "residence (exploration) time in the novel arm", "setting": "[1]; compound 3 up to the 1 mg/kg dose, p<0.01 vs ESC", "result": "gradual increase in the exploration time, significantly different from the ESC group"}, {"measurement": "total seizure score (0-120 minutes)", "setting": "[2]", "result": "significant decrease in the total score"}]}]}
